According to patent publication US10196363B2, “Dihydropyrimidin-2-one compounds and medical use thereof” (JAPAN TOBACCO INC., priority 2014, dated 2019):
Like-named read-outs stand apart in the source and are kept apart here.

Assays:
[1] = target: T1, human RORγ (Homo sapiens, UniProt P51449); assay: In vitro assay of inhibitory effect against RORγ transcriptional activity (GAL4-hRORγ LBD luciferase reporter gene assay in CHO cells); type: cell-based; details: for hRORγ luciferase activity, %-of-control: vehicle-control 0.2% DMSO alone = 100%
T1 construct: human RORγ, from Ser253 to Lys518; expressed in transfected cells; host or cells: CHO cells (Chinese hamster ovary), transient co-transfection with pG5-Luc
T1 sequence (P51449 253-518): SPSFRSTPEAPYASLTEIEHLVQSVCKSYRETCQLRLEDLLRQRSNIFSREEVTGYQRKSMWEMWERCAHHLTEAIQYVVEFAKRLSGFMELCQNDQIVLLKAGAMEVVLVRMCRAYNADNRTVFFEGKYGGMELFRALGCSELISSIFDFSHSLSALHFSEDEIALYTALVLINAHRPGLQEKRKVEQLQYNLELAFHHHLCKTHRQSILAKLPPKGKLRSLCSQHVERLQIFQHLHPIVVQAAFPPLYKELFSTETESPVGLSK
In short: (§1)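 CHO cells, transient GAL4-RORγ LBD + pG5-Luc; cmpd 8 conc, 0.2% DMSO, 2 d, 37 °C, 5% CO2. SteadyLite luminescence, %-of-DMSO control (100%), EC50 by curve fit. Cytotoxic concentrations (resazurin) excluded.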

[2] = target: T2, mouse RORγ (Mus musculus, UniProt P51450); assay: In vitro assay of inhibitory effect against RORγ transcriptional activity (GAL4-mRORγ LBD luciferase reporter gene assay in CHO cells); type: cell-based; details: for mRORγ luciferase activity, %-of-control: vehicle-control 0.2% DMSO alone = 100%
T2 construct: mouse RORγ, from Ile251 to Lys516; expressed in transfected cells; host or cells: CHO cells (Chinese hamster ovary), transient co-transfection with pG5-Luc
T2 sequence (P51450 251-516): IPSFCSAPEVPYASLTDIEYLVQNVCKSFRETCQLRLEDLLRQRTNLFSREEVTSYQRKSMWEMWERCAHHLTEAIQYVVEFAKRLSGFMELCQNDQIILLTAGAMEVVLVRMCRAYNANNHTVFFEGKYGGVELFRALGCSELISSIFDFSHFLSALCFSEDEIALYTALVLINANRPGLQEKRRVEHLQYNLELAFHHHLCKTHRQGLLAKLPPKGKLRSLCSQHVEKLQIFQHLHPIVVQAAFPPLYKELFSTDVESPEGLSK
In short: as §1

[3] = GAL4-hRORγ LBD luciferase reporter, CHO cells, read-out: LUC EC50 hRORγ
[4] = GAL4-mRORγ LBD luciferase reporter, CHO cells, read-out: LUC EC50 mRORγ
[5] = value in parentheses beside the EC50 bound
[6] = GAL4-hRORγ LBD / pG5-Luc in CHO cells, 2 days incubation
[7] = value in parentheses beside the > EC50 bound
[8] = GAL4-mRORγ LBD / pG5-Luc in CHO cells, 2 days incubation

Structure (SMILES) | EC50 [1, 3] [nM] | EC50 [2, 4] [nM] | EC50 [1, 6] [nM] | EC50 [2, 8] [nM] | further results
CC(C)CC[S+]([O-])c1ccc([C@]2(C)NC(=O)N(CCC(=O)O)C=C2C(C)C)cc1Cl (mixture of isomers) [Example 217] | > 20000 | > 20000 |  |  | hRORγ luciferase activity, %-of-control [1, 5]: (90%); mRORγ luciferase activity, %-of-control [2, 5]: (77%)
CC(C)C1=CN(CCC(=O)O)C(=O)N[C@]1(C)c1ccc(CCCC(F)(F)F)c(Cl)c1 [Example 128] |  |  | > 20000 | > 20000 | hRORγ luciferase activity, %-of-control [1, 7]: (66%); mRORγ luciferase activity, %-of-control [2, 7]: (54%)
CC(C)C1=CN(C23C4C5C2C2C3C4C52C(=O)O)C(=O)N[C@@]1(C)c1ccc(CCC(C)(C)C)c(Cl)c1 (single isomer, unassigned) [Example 222] | 20 | 40 |  |  | 
CC(C)C1=CN(CCC(=O)O)C(=O)N[C@@]1(C)c1ccc(CCC(C)(C)C)c(C(F)(F)F)c1 [Example 270] | 52 | 26 |  |  | 
CC(C)CCS(=O)(=O)c1ccc([C@]2(C)NC(=O)N(CCC(=O)O)C=C2C(C)C)cc1Cl [Example 216] | > 20000 | > 20000 |  |  | hRORγ luciferase activity, %-of-control [1, 5]: (86%); mRORγ luciferase activity, %-of-control [2, 5]: (76%)
CC(C)C1=CN(CCC(=O)O)C(=O)N[C@]1(C)c1ccc(CCC2CC(C)(C)C2)c(Cl)c1 [Example 141] |  |  | > 8000 | > 8000 | hRORγ luciferase activity, %-of-control [1, 7]: (57%); mRORγ luciferase activity, %-of-control [2, 7]: (52%)
CC(C)CCOc1ccc([C@]2(C)NC(=O)N(CCC(=O)O)C=C2CC(C)C)c(F)c1Cl [Example 202] | 87 | 52 |  |  | 
CC(C)C1=CN(CCC(C)(C)C(=O)O)C(=O)N[C@@]1(C)c1ccc(CCC(C)(C)C)c(Cl)c1 [Example 55] |  |  | 22 | 26 | 
CC(C)C1=CN(CCC(=O)O)C(=O)N[C@@]1(C)c1ccc(COC(C)(C)C)c(Cl)c1 [Example 147] |  |  | 59 | 30 | 
COCCC(C)(C)CC1=CN(c2ccc(C(=O)O)cc2)C(=O)N[C@@]1(C)c1ccc(CCC(C)(C)C)c(Cl)c1 [Example 209] | 51 | 74 |  |  | 
CC(C)C1=CN(CCC(=O)O)C(=O)N[C@@]1(C)c1ccc(CCC(C)(C)F)c(Cl)c1 [Example 294] | 68 | 34 |  |  | 
COCCC1=CN(c2ccc(C(=O)O)cc2)C(=O)N[C@@]1(C)c1ccc(CCC(C)(C)C)c(Cl)c1 [Example 210] | 6 | 7 |  |  | 
CC(C)CCc1ccc(C2(C)NC(=O)N(CCCC(=O)O)C=C2C(C)C)cc1Cl (racemic) [Example 27] |  |  | 25 | 16 | 
CC(C)C1=CN(CCc2ccccc2C(=O)O)C(=O)N[C@@]1(C)c1ccc(CCC(C)(C)C)c(Cl)c1 [Example 83] |  |  | 40 | 43 | 
CC(C)C1=CN(CCC(=O)O)C(=O)N[C@]1(C)c1ccc(C2=CCCC2)c(Cl)c1 [Example 148] |  |  | > 8000 | > 8000 | hRORγ luciferase activity, %-of-control [1, 7]: (57%); mRORγ luciferase activity, %-of-control [2, 7]: (69%)
COCCC1=CN(c2ccc(C(=O)O)c(OC)c2)C(=O)N[C@@]1(C)c1ccc(C2=CCC(C)(C)CC2)c(Cl)c1 [Example 333] | 23 | 13 |  |  | 
CC(C)(C)CCc1ccc([C@]2(C)NC(=O)N(c3ccc(C(=O)O)cc3)C=C2C2CC(F)(F)C2)cc1Cl [Example 252] | 20 | 28 |  |  | 
CC(C)(C)CCc1ccc([C@]2(C)NC(=O)N(C34CC(C(=O)O)(C3)C4)C=C2C2CC(F)(F)C2)cc1C(F)(F)F [Example 341] | 67 | 32 |  |  | 
CC(C)C1=CN(CCc2ccccc2C(=O)O)C(=O)N[C@]1(C)c1ccc(CCC(C)(C)C)c(Cl)c1 [Example 82] |  |  | 980 | 790 | 

More lines, main results first:

EC50 [1, 3] [nM] | EC50 [2, 4] [nM] | EC50 [1, 6] [nM] | EC50 [2, 8] [nM] | Structure (SMILES) | further results
42 | 114 |  |  | COCC1(N2C=C([C@H]3C[C@@H](C(=O)O)C3)[C@](C)(c3ccc(CCC(C)(C)C)c(Cl)c3)NC2=O)CC1 [Example 250] | 
10 | 22 |  |  | CC(C)(C)CCc1ccc([C@]2(C)NC(=O)N(C3CCC(F)(F)CC3)C=C2[C@H]2C[C@@H](C(=O)O)C2)cc1Cl [Example 246] | 
17 | 36 |  |  | CC(C)C1=CN(C23CCC(C(=O)O)(C2)C3)C(=O)N[C@@]1(C)c1ccc(CCC(C)(C)C)c(Cl)c1 [Example 272] | 
 |  | 31 | 28 | CC(C)C1=CN([C@H]2C[C@H](C(=O)O)C2)C(=O)N[C@@]1(C)c1ccc(CCC(C)(C)C)c(Cl)c1 [Example 42] | 
 |  | 12 | 14 | CC(C)(C)CCc1ccc(C2(C)NC(=O)N(CCC(=O)O)C=C2C2(C)CC2)cc1Cl (single isomer, unassigned) [Example 171] | 
78 | 58 |  |  | CC(C)C1=CN(C2CCCC2C(=O)O)C(=O)N[C@@]1(C)c1ccc(CCC(C)(C)C)c(Cl)c1 (single isomer, unassigned) [Example 242] | 
 |  | 20 | 26 | CC(C)C1=CN(CCOCC(=O)O)C(=O)NC1(C)c1ccc(CCC(C)(C)C)c(Cl)c1 (single isomer, unassigned) [Example 39] | 
 |  | 15300 | 12400 | CC1=CN(CCCC(=O)O)C(=O)N[C@]1(C)c1ccc(CCC(C)(C)C)c(Cl)c1 [Example 60] | 
 |  | 405 | 481 | CC(C)C1=CN([C@H]2C[C@](C)(C(=O)O)C2)C(=O)N[C@]1(C)c1ccc(CCC(C)(C)C)c(Cl)c1 [Example 111] | 
 |  | 36 | 49 | CC(C)C1=CN([C@H]2CC[C@H](C(=O)O)CC2)C(=O)NC1(C)c1ccc(CCC(C)(C)C)c(Cl)c1 (mixture of isomers) [Example 29] | 
 |  | 23 | 17 | CC(C)C1=CN([C@H]2CC[C@@H](C(=O)O)CC2)C(=O)N[C@@]1(C)c1ccc(CCC(C)(C)C)c(Cl)c1 [Example 67] | 
14 | 23 |  |  | CO[C@H]1C[C@H](N2C=C([C@H]3C[C@@H](C(=O)O)C3)[C@](C)(c3ccc(CCC(C)(C)C)c(Cl)c3)NC2=O)C1 [Example 200] | 
 |  | 1180 | 1080 | CC(C)(C)CCc1ccc([C@@]2(C)NC(=O)N(CCCC(=O)O)C=C2C2(C)CC2)cc1Cl [Example 51] | 
174 | 60 |  |  | COCCC1=CN([C@H]2CC[C@H](C(=O)O)CC2)C(=O)N[C@@]1(C)c1ccc(CCC(C)(C)C)c(C(F)(F)F)c1 [Example 325] | 
273 | 296 |  |  | CC(C)C1=CN(C2CCCC(C(=O)O)C2)C(=O)N[C@@]1(C)c1ccc(CCC(C)(C)C)c(Cl)c1 (single isomer, unassigned) [Example 255] | 
13 | 13 |  |  | CC(C)C1=CN(C2CCC(C(=O)O)C2)C(=O)N[C@@]1(C)c1ccc(CCC(C)(C)C)c(Cl)c1 (single isomer, unassigned) [Example 278] | 
 |  | 152 | 142 | CC(C)C1=CN(CC(=O)O)C(=O)N[C@@]1(C)c1ccc(CCC(C)(C)C)c(Cl)c1 [Example 94] | 
26 | 18 |  |  | COc1cc(N2C=C(C3CC(F)(F)C3)[C@](C)(c3ccc(CCC(C)(C)C)c(Cl)c3)NC2=O)ccc1C(=O)O [Example 346] | 
 |  | 12 | 18 | COCCN1C=C([C@H]2C[C@@H](C(=O)O)C2)C(C)(c2ccc(CCC(C)(C)C)c(Cl)c2)NC1=O (single isomer, unassigned) [Example 168] | 
